Source: patent US10266513B2 (Pfizer Inc., priority 2012, dated 2019)
Read-outs that look alike come from different tables or passages of the source.

Tests used:
human EGFR kinase domain = human EGFR kinase domain (Homo sapiens (Human), UniProt P00533); test: Human EGFR LanthaScreen Selectivity Assay (TR-FRET); format: biochemical; settings: 20 μM ATP
Protocol: The kinase reaction mixtures were incubated at room temperature for 60 minutes before stopping the kinase activity by the addition of 15 mM EDTA. The extent of peptide phosphorylation by EGFR was detected using a Terbium-conjugated anti-phospho-Tyrosine antibody (Tb-PT66 antibody, invitrogen # PV3557).

human whole blood = test: Human Whole Blood Histamine Assay (anti-IgE induced histamine release); format: cell-based; settings: heparinized human whole blood, anti-human-IgE 2 μg/ml, histamine release by ELISA, read-out: HWB IC50
Protocol: Human Whole Blood Histamine Assay
Heparinized human whole blood (200 μl) was plated in 96-well V-bottom assay plates (VWR). Compounds diluted in 100% DMSO (1 μl) were added and incubated at 37° C. for 120 minutes. Anti-human-IgE antibody (KPL) was added to a final concentration of 2 μg/ml and assay plates incubated for 30 minutes at 37° C. Plates were spun at 2000 rpm for 8 minutes and the analyzed for histamine release by ELISA kits (Beckman Coulter).
Inhibition curves and IC50 values are determined using Excel-fit.

[1] = molecular target: human full-length BTK Kinase (Homo sapiens (Human), UniProt Q06187); test: Human BTK LanthaScreen Assay (TR-FRET); format: biochemical; settings: 50 μM ATP, FAM-Srctide peptide substrate, read-out: BTK Inhibition IC50
Source text: Human BTK LanthaScreen Assay

Human B cells = test: Human Primary B Cell Proliferation Assay (3H-thymidine incorporation, anti-human IgM stimulated); format: cell-based; settings: purified human B cells, 50 μg/mL anti-human IgM F(ab')2, 72 hours
Protocol: Human Primary B Cell Proliferation Assay
Human B cells were purified from buffy coats using the human B cell RosetteSep kit per manufacturer's instructions. Purified cells were resuspended in RPMI-10% HIFCS, 2 mM L-glutamine, 100 U/mL penicillin, 100 μg/ml streptomycin, incubated with compounds for 1 hour at 37° C. and then stimulated with 50 μg/mL anti-human IgM F(ab′)2 for 72 hours. ^3H-thymidine was included in the culture media for the final 8-16 hours. Cells were harvested and ^3H-thymidine incorporation was measured.
Human B cell Proliferation Assay

human EGFR kinase domain, sequence (P00533 712-979): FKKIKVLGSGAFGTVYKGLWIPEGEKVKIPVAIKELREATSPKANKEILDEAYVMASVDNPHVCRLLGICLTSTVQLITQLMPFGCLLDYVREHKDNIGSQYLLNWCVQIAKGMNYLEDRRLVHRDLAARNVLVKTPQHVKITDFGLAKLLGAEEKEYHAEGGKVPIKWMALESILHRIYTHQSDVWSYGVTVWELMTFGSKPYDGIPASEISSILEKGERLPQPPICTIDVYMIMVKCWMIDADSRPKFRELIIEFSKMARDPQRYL
human full-length BTK Kinase, sequence (Q06187 whole entry): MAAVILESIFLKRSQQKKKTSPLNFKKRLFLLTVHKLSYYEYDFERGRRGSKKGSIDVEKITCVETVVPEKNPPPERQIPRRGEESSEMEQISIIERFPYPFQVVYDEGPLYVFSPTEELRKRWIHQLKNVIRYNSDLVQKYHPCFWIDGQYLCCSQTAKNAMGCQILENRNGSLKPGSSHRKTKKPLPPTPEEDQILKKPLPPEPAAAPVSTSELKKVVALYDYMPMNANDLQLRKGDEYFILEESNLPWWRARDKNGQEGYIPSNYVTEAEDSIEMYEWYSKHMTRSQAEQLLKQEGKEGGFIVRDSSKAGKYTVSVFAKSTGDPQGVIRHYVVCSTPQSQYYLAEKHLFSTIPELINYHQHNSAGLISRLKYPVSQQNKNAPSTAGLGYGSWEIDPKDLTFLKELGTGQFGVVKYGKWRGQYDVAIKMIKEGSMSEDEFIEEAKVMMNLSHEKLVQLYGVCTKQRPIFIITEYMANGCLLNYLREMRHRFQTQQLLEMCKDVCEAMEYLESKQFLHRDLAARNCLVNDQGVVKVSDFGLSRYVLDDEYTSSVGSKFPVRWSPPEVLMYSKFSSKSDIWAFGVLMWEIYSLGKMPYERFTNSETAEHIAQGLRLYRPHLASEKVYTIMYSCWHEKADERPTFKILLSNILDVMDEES

Compound | IC50 (human EGFR kinase domain) [nM] | IC50 (human whole blood) [nM] | IC50 [1] [nM] | IC50 (Human B cells; B-cell) [nM] | IC50 (human whole blood; Homo sapiens) [nM] | IC50 (Human B cells; Homo sapiens, B-cell) [nM] | IC50 (Human B cells) [nM]
N#CN1CCCC(n2nc(-c3ccc(Oc4ccccc4)cc3)c(C(N)=O)c2N)C1 (single isomer, unassigned) [Example 2] | 1710 | 33.3 | 0.37 | 0.5 |  |  | 
N#CN1CCCC(n2nc(-c3ccc(Oc4ccc(Cl)cc4)cc3)c(C(N)=O)c2N)C1 (single isomer, unassigned) [Example 15] | 3890 | 20.6 | 0.64 | 1.7 |  |  | 
N#CN1CCCC(n2nc(-c3ccc(Oc4ccc(F)cc4F)cc3)c(C(N)=O)c2N)C1 (single isomer, unassigned) [Example 27] | 16800 | 64.3 | 1.3 | 2.7 |  |  | 
N#CN1CCC[C@@H](n2nc(-c3ccc(Oc4ccc(Cl)cn4)cc3)c(C(N)=O)c2N)C1 [Example 110, (R)-5-amino-3-(4-((5-chloropyridin-2-yl)oxy)phenyl)-1-(1-cyanopiperidin-3-yl)-1H-pyrazole-4-carboxamide] | > 15400 | 94.7 | 9.2 | 1.6 |  |  | 
N#CN1CCC[C@@H](n2nc(-c3ccc(Oc4cccc(C(F)(F)F)n4)cc3)c(C(N)=O)c2N)C1 [Example 116, (R)-5-amino-1-(1-cyanopiperidin-3-yl)-3-(4-((6-(trifluoromethyl)pyridin-2-yl)oxy)phenyl)-1H-pyrazole-4-carboxamide] | > 26800 | 41.8 | 2.6 | 14.9 |  |  | 
N#CN1CCC[C@@H](n2nc(-c3ccc(Oc4ncc(Cl)cc4F)cc3)c(C(N)=O)c2N)C1 [Example 118, (R)-5-amino-3-(4-((5-chloro-3-fluoropyridin-2-yl)oxy)phenyl)-1-(1-cyanopiperidin-3-yl)-1H-pyrazole-4-carboxamide] | > 50000 | 50 | 7.6 | 29.6 |  |  | 
C=CC(=O)N1CCC[C@H](n2nc(-c3ccc(Oc4ccccc4)cc3)c(C(N)=O)c2N)C1 [Example 126, 1-[(3S)-1-acryloylpiperidin-3-yl]-5-amino-3-(4-phenoxyphenyl)-1H-pyrazole-4-carboxamide] | 802 |  |  |  | 201 | 20.9 | 
C=CC(=O)N1CCC[C@@H](n2nc(-c3ccc(Oc4ccc(Cl)cc4)cc3)c(C(N)=O)c2N)C1 [Example 130, 1-[(3R)-1-acryloylpiperidin-3-yl]-5-amino-3-[4-(4-chlorophenoxy)phenyl]-1H-pyrazole-4-carboxamide] | 7.9 | 133 | 0.17 | 0.15 |  |  | 
NC(=O)c1c(-c2ccc(Oc3ccc(Cl)cc3)cc2)nn([C@@H]2CCCN(C(=O)/C=C/CO)C2)c1N [Example 131, 5-amino-3-[4-(4-chlorophenoxy)phenyl]-1-{(3R)-1-[(2E)-4-hydroxybut-2-enoyl]piperidin-3-yl}-1H-pyrazole-4-carboxamide] | 2200 | 259 | 2.3 | 1.6 |  |  | 
C=CC(=O)N1CCC[C@H](n2nc(-c3ccc(Oc4ccc(F)cc4F)cc3)c(C(N)=O)c2N)C1 [Example 136, 1-[(3S)-1-acryloylpiperidin-3-yl]-5-amino-3-[4-(2,4-difluorophenoxy)phenyl]-1H-pyrazole-4-carboxamide] | 214 | 570 | 7.8 |  |  | 0.44 | 
C=CC(=O)N1CCC[C@@H](n2nc(-c3ccc(Oc4ccc(F)cc4F)cc3)c(C(N)=O)c2N)C1 [Example 137, 1-[(3R)-1-acryloylpiperidin-3-yl]-5-amino-3-[4-(2,4-difluorophenoxy)phenyl]-1H-pyrazole-4-carboxamide] | 25.6 | 31.4 | 0.25 |  |  |  | 0.63
NC(=O)c1c(-c2ccc(Oc3ccc(F)cc3F)cc2)nn([C@@H]2CCCN(C(=O)/C=C/C(F)F)C2)c1N [Example 144, 5-amino-1-{(3R)-1-[(2E)-4,4-difluorobut-2-enoyl]piperidin-3-yl}-3-[4-(2,4-difluorophenoxy)phenyl]-1H-pyrazole-4-carboxamide] |  |  | 0.41 | 0.84 |  |  | 
NC(=O)c1c(-c2ccc(Oc3ccc(F)cc3F)cc2)nn([C@@H]2CCCN(C(=O)/C=C/CF)C2)c1N [Example 145, 5-amino-3-[4-(2,4-difluorophenoxy)phenyl]-1-{(3R)-1-[(2E)-4-fluorobut-2-enoyl]piperidin-3-yl}-1H-pyrazole-4-carboxamide] | 2180 | 126 | 2.8 | 11.8 |  |  | 
C[C@@H](O)/C=C/C(=O)N1CCC[C@@H](n2nc(-c3ccc(Oc4ccc(F)cc4F)cc3)c(C(N)=O)c2N)C1 [Example 149, 5-amino-3-(4-(2,4-difluorophenoxy)phenyl)-1-((R)-1-((R,E)-4-hydroxypent-2-enoyl)piperidin-3-yl)-1H-pyrazole-4-carboxamide] |  |  | 52 |  |  |  | 
C=C(F)C(=O)N1CCC[C@@H](n2nc(-c3ccc(Oc4ccc(F)cc4F)cc3)c(C(N)=O)c2N)C1 [Example 150, 5-amino-3-[4-(2,4-difluorophenoxy)phenyl]-1-[(3R)-1-(2-fluoroacryloyl)piperidin-3-yl]-1H-pyrazole-4-carboxamide] |  |  | 5.3 |  |  |  | 
N#C/C=C/C(=O)N1CCC[C@@H](n2nc(-c3ccc(Oc4ccc(F)cc4F)cc3)c(C(N)=O)c2N)C1 [Example 152, 5-amino-1-{(3R)-1-[(2E)-3-cyanoprop-2-enoyl]piperidin-3-yl}-3-[4-(2,4-difluorophenoxy)phenyl]-1H-pyrazole-4-carboxamide] |  |  | 1.5 |  |  |  | 
C=CC(=O)N1CCC[C@@H](n2nc(-c3ccc(Oc4ncc(Cl)cc4F)cc3)c(C(N)=O)c2N)C1 [Example 153, 1-[(3R)-1-acryloylpiperidin-3-yl]-5-amino-3-{4-[(5-chloro-3-fluoropyridin-2-yl)oxy]phenyl}-1H-pyrazole-4-carboxamide] |  |  | 0.48 | 0.56 |  |  | 
NC(=O)c1c(-c2ccc(Oc3ncc(Cl)cc3F)cc2)nn([C@@H]2CCCN(C(=O)/C=C/CO)C2)c1N [Example 154, 5-amino-3-{4-[(5-chloro-3-fluoropyridin-2-yl)oxy]phenyl}-1-{(3R)-1-[(2E)-4-hydroxybut-2-enoyl]piperidin-3-yl}-1H-pyrazole-4-carboxamide] |  |  | 49 |  |  |  | 
NC(=O)c1c(-c2ccc(Oc3ncc(Cl)cc3F)cc2)nn([C@@H]2CCCN(C(=O)/C=C/C(F)F)C2)c1N [Example 155, 5-amino-3-{4-[(5-chloro-3-fluoropyridin-2-yl)oxy]phenyl}-1-{(3R)-1-[(2E)-4,4-difluorobut-2-enoyl]piperidin-3-yl}-1H-pyrazole-4-carboxamide] | 106 |  | 0.7 | 2 |  |  | 
NC(=O)c1c(-c2ccc(Oc3ncc(Cl)cc3F)cc2)nn([C@@H]2CCCN(C(=O)/C=C/CF)C2)c1N [Example 156, 5-amino-3-{4-[(5-chloro-3-fluoropyridin-2-yl)oxy]phenyl}-1-{(3R)-1-[(2E)-4-fluorobut-2-enoyl]piperidin-3-yl}-1H-pyrazole-4-carboxamide] | 381 |  | 1.4 | 2.5 |  |  | 
NC(=O)c1c(-c2ccc(Oc3ccc(Cl)cn3)cc2)nn([C@@H]2CCCN(C(=O)/C=C/C(F)F)C2)c1N [Example 159, 5-amino-3-{4-[(5-chloropyridin-2-yl)oxy]phenyl}-1-{(3R)-1-[(2E)-4,4-difluorobut-2-enoyl]piperidin-3-yl}-1H-pyrazole-4-carboxamide] | 311 |  | 1.3 | 2.8 |  |  | 
NC(=O)c1c(-c2ccc(Oc3ccc(Cl)cn3)cc2)nn(C2CCCN(C(=O)/C=C/CF)C2)c1N (centres unmarked) [Example 160] | 890 |  | 5.5 | 2.9 |  |  | 
NC(=O)c1c(-c2ccc(Oc3cccc(C(F)(F)F)n3)cc2)nn([C@@H]2CCCN(C(=O)/C=C/C(F)F)C2)c1N [Example 163, 5-amino-1-{(3R)-1-[(2E)-4,4-difluorobut-2-enoyl]piperidin-3-yl}-3-(4-{[6-(trifluoromethyl)pyridin-2-yl]oxy}phenyl)-1H-pyrazole-4-carboxamide] |  |  | 1.3 | 0.92 |  |  | 
NC(=O)c1c(-c2ccc(Oc3cccc(C(F)(F)F)n3)cc2)nn([C@@H]2CCCN(C(=O)/C=C/CF)C2)c1N [Example 164, 5-amino-1-{(3R)-1-[(2E)-4-fluorobut-2-enoyl]piperidin-3-yl}-3-(4-{[6-(trifluoromethyl)pyridin-2-yl]oxy}phenyl)-1H-pyrazole-4-carboxamide] | 3360 |  | 3.2 | 11.4 |  |  | 
C=C(F)C(=O)N1CCC[C@@H](n2nc(-c3ccc(Oc4cccc(C(F)(F)F)n4)cc3)c(C(N)=O)c2N)C1 [Example 165] |  |  | 4.4 |  |  |  | 
N#C/C=C/C(=O)N1CCC[C@@H](n2nc(-c3ccc(Oc4cccc(C(F)(F)F)n4)cc3)c(C(N)=O)c2N)C1 [Example 166, 5-amino-1-{(3R)-1-[(2E)-3-cyanoprop-2-enoyl]piperidin-3-yl}-3-(4-{[6-(trifluoromethyl)pyridin-2-yl]oxy}phenyl)-1H-pyrazole-4-carboxamide] |  |  | 2.2 |  |  |  | 
